Legend:
human neutrophils = assay: NETosis of PMA-activated primary human neutrophils (ATAC-see / ATAC-seq); format: cell-based
Experimental: Human neutrophils were isolated from healthy donor's blood following as described under a Stanford University IRB-approved protocol^23. In brief, 7 ml of heparinized blood was layered on 7 ml Histopaque 1119 (11191-100ML, Sigma Aldrich) in a 15 ml Falcon tube, and the mixture was spun 20 min at 800× g at room temperature. The interphase (lymphocytes and monocytes) was discarded and the granulocyte-rich layer of Histopaque 1119 (diffuse, red phase above RBC pellet) was collected in a new tube. 5 ml of cells were washed with 10 ml of medium (HBSS+), and spun 10 min at 200× g at room temperature. The cells were resuspended in 3 ml DPBS with 0.5% human serum albumin (101-15-50, Lee BioSolutions), and the cell suspension was layered on 10 ml of a discontinuous Percoll gradient (85% to 65% Percoll) and spun 20 min at 800×g at room temperature. The interphase between 70% and 75% Percoll layers were collected in a new 15 ml tube. The tube was added with DPBS with 0.5% human serum albumin up to 15 ml and spun for 10 min at 200× g at room temperature. The cell pellet was resuspended in RPMI-HEPES (10 mM) at 1.5×10^6 cells per ml for neutrophil activation.
Human neutrophils were stimulated by Phorbol myristate acetate (PMA) as described^23. Briefly, the purified neutrophils were suspended in 3 ml RPMI 1640 with final concentration of 1.5×10^6 per ml in loosen cap 15 ml falcon tube, and incubated in cell culture CO2 incubator (5% CO2, 37° C.) with final concentration of 30 nM PMA for 1 h, 3 h, and 5 h respectively. After 2 h of simulation, protease inhibitor cocktail was added at a 1:200 dilution to both control and simulated tubes. At the respective time points, neutrophils were fixed with 1% formaldehyde for 10 min at room temperature, and fixed neutrophil cells spun down on the glass slide with cytospin 1000 rpm 5 min at room temperature for ATAC-see or immuno-staining.
The PAD4 inhibition was performed as previously described^25.
80% confluent Human HT1080 cells (30-50,000 cells) grown in 8 well chamber slides were fixed with 1% formaldehyde (Sigma, USA) for 10 min and quenched with 0.125 M glycine for 5 min at room temperature. After fixation, slides were put in PBS at 4° C. […] The 50 μl transposase reaction solution was added onto the slide, and the cells on slide were incubated at 37° C. for 30 min. For the imaging and sequencing, slides were mounted using Vectorshield and images were taken with a Zeiss LSM 700. After imaging, the coverslip was removed and cells were lysed with 50 μl of 50 mM Tris-Cl, 1 mM EDTA, 1% SDS, 0.2 M NaCl 5 min on slide at room temperature. The cell lysis was carefully transferred to 1.5 ml eppendorf tube. The glass slide was washed with 50 μl of the same buffer another 3 times and washing solutions were transferred to the same tube carefully. […]

Tn5 = Tn5 (Escherichia coli, UniProt Q46731, E54K/L372P); conditions: 50 mM EDTA, HT1080 cells
Experimental: HT1080 cells and HeLa cells were grown on secureSlip cell culture system (0515073, GRACE BIO-LABS) until 80-90% confluent and fixed with 1% formaldehyde (Sigma-Aldrich) for 10 min at room temperature. GM12878 cells were fixed with 1% formaldehyde (Sigma) 10 min at room temperature and centrifuged on the glass slide with Cytospin, 1000 rpm for 5 min, 30-50,000 cells per slide.
ATAC-see: After fixation, the cells (either growing on slide or centrifuged on glass slide with cytospin) were permeabilized with lysis buffer (10 mM Tris-Cl, pH 7.4, 10 mM NaCl, 3 mM MgCl2, 0.01% Igepal CA-630) for 10 min at room temperature. After the permeabilization, the slides were rinsed in PBS twice, and put in humid chamber box at 37° C. The transposase mixture solution (25 μl 2× TD buffer, final concentration of 100 nM Tn5-ATTO-59ON, adding dH2O up to 50 μl) was added on the slide and incubated for 30 min at 37° C. […] After washing, slides were mounted using Vectashield with DAPI (H-1200, Vector labs) for imaging with Leica SP8 or Zeiss 700 or for additional co-staining with Lamin B1 or mitochondria (see the materials and methods above).

NC(=O)[C@H](CCCN=C(N)CCl)NC(=O)c1ccccc1 [Cl-amidine]
NETosis (human neutrophils; 200 μM Cl-amidine 30 min before PMA stimulation): inhibited
release of free DNA from mononucleosomes (human neutrophils; PAD4i-treated, after 5 hrs of neutrophil activation): fail to release free DNA from mononucleosomes

CCCCCCCCCCCCCC(=O)O[C@@H]1[C@@H](C)[C@@]2(O)[C@@H](C=C(CO)C[C@]3(O)C(=O)C(C)=C[C@@H]23)[C@@H]2C(C)(C)[C@]12OC(C)=O [PMA, Phorbol myristate acetate]
neutrophils that have released their chromatin into the extracellular space (human neutrophils; 30 nM PMA, after 3 hrs of stimulation): 49.7%
neutrophils that have released NETs (human neutrophils; 30 nM PMA, after 5 hrs of stimulation): 59.7%

O=C(O)CN(CCN(CC(=O)O)CC(=O)O)CC(=O)O [EDTA]
ATAC-see signal, % of control (Tn5): 2.69%±0.04
